Where a SMILES comes first, the peptide text is derived from it. [ ]: non-standard residue; d: D form. pGlu = O=C1CC[C@@H](C(=O)O)N1
System: haemopoiesis
Experiment: inhibitory effect on haemopoiesis in vivo
Details: time at which the inhibitory effect occurs
From the text: By contrast it is also possible to prepare peptides having a metabolically labile blocking group so that slow release of the unblocked peptide can be achieved in vivo. Thus according to a further aspect of the invention we provide compounds of formula [drawing 10] wherein R^a, R^b, R^c, R^e, R^f and n are as defined for formula I, R^12 is a metabolically labile group, for example a 2-pyridylthio group, and all amino acids have the chiral form stated for formula (I).

NCCCC[C@H](NC(=O)[C@H](CS)NC(=O)[C@H](CC(=O)O)NC(=O)[C@H](CCC(=O)O)NC(=O)[C@@H]1CCC(=O)N1)C(=O)O [Example 1, L-PYROGLUTAMYL-L-GLUTAMYL-L-ASPARTYL-L-CYSTEINYL-L-LYSINE] ([pGlu]EDCK-OH)
inhibitory effect on haemopoiesis, occurring after: 1 days

— patent publication US5484770A, “Peptide compounds which inhibit the proliferation of epidermal or epithelial stem cells” (Hafslund Nycomed Bioreg AS, priority 1988, dated 1996)
